From the Kinase Knowledgebase extract (Sharma et al. 2016)

molecular target: PIK3CA (human) (UniProt P42336); assay: Assessment of PI3KCA Kinase Activity
Sequence (P42336 whole entry, looked up): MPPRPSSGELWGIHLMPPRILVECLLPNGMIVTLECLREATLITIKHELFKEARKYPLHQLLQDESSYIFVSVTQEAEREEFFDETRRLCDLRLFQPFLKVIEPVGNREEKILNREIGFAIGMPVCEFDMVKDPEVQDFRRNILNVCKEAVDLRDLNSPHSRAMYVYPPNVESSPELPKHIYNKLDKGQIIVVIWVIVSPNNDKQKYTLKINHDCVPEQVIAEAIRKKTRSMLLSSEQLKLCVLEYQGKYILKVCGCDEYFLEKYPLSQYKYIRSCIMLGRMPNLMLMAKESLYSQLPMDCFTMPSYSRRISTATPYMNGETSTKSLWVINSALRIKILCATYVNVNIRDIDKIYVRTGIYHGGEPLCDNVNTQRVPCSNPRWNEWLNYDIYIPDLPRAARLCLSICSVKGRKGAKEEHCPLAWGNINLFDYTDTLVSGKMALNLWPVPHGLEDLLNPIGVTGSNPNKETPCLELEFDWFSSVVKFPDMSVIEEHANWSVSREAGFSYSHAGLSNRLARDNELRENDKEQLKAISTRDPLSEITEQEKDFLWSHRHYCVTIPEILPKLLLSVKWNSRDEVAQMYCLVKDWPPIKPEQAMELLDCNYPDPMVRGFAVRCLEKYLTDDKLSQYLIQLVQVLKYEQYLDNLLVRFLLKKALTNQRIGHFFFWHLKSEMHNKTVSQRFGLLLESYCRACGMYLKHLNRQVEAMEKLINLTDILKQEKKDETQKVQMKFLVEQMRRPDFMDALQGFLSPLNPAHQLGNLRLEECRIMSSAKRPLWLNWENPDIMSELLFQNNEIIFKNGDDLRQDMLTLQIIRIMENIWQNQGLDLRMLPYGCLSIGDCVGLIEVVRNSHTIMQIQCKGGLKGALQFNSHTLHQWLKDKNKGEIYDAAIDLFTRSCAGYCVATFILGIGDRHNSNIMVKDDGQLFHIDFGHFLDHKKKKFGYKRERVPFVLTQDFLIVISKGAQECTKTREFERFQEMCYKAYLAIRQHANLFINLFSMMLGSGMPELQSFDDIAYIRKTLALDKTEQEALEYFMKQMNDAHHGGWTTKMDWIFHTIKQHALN

IC50 | Structure (SMILES)
< 100 nM | CC(=O)Nc1cc(-c2sc(-c3ccn[nH]3)c(-c3ccc(Cl)cc3Cl)c2C#N)ccn1
< 100 nM | Cc1nn2ccc(OCCN3CCC(F)CC3)cc2c1-c1nc(-c2ccccc2)c(-c2nc[nH]n2)s1
100 to 1000 nM | Cc1nn2ccsc2c1-c1nc(-c2ccccc2)c(-c2cocn2)s1
< 100 nM | Cc1nc2ccc(C=O)cn2c1-c1nc(-c2ccccc2)c(-c2nnc[nH]2)s1
< 100 nM | Cc1nc2ccc(CN(CCN)Cc3ccccc3)cn2c1-c1nc(-c2ccccc2)c(-c2nnc[nH]2)s1
< 100 nM | CC(=O)Nc1cc(-c2sc(-c3nnc(Br)[nH]3)c(-c3ccc(Cl)cc3Cl)c2C#N)ccn1
100 to 1000 nM | Cc1nn2ccccc2c1-c1nc(-c2cnn(CCN3CCOCC3)c2)c(-c2nc[nH]n2)s1
100 to 1000 nM | COC(=O)c1ccc(-c2nc(-c3ccnc(NC(C)=O)c3)sc2-c2ncc[nH]2)cc1
< 100 nM | CCOc1nc(-c2ccnc(NC(=O)CCc3ccccc3)c2)sc1-c1nnc[nH]1
< 100 nM | CNc1nccc(-c2sc(-c3nnc[nH]3)c(-c3ccc(Cl)cc3Cl)c2C#N)n1
< 100 nM | Cc1nn2ccc(OCCNC(=O)c3cn(C)cn3)cc2c1-c1nc(-c2ccccc2)c(-c2nc[nH]n2)s1
< 100 nM | Cc1nn2ccccc2c1-c1nc(-c2cccc(F)c2F)c(-c2nc[nH]n2)s1
100 to 1000 nM | N#Cc1c(-c2nc(N)ncc2Cl)sc(-c2nnc[nH]2)c1-c1ccc(Cl)cc1Cl
100 to 1000 nM | COc1ccc(F)c(F)c1-c1nc(-c2c(C)nn3ccccc23)sc1-c1nc[nH]n1
100 to 1000 nM | CNC(=O)Nc1cc(-c2sc(-c3ccn[nH]3)c(-c3ccc(Cl)cc3Cl)c2C#N)ccn1
< 100 nM | Cc1nn2ccccc2c1-c1cc(-c2ccc(Cl)cc2Cl)c(-c2ncc[nH]2)s1

IC50 | Structure (SMILES)
< 100 nM | N#Cc1c(-c2ccnc(NC(=O)C3CC3)c2)sc(-c2ncc[nH]2)c1-c1ccc(Cl)cc1Cl
100 to 1000 nM | N#Cc1c(-c2cc(N)nc(F)c2)sc(-c2nnc[nH]2)c1-c1ccc(Cl)cc1Cl
< 100 nM | Cc1nn2ccc(OCCN3CCCCC3)cc2c1-c1nc(-c2ccccc2F)c(-c2nc[nH]n2)s1
100 to 1000 nM | N#Cc1c(-c2ccnc(NC(=O)C3CCC3)c2)sc(-c2nnc[nH]2)c1-c1ccc(Cl)cc1Cl
< 100 nM | Cc1nn2ccc(OCCCN3CCOCC3)cc2c1-c1nc(-c2ccccc2)c(-c2nc[nH]n2)s1
100 to 1000 nM | Cc1nn2ccccc2c1-c1nc(-c2ccc[nH]2)c(-c2nc[nH]n2)s1
< 100 nM | CC(C)(C)Nc1nc2c(-c3cc(-c4ccc(Cl)cc4Cl)c(-c4ncc[nH]4)s3)ncnc2s1
< 100 nM | Clc1ccc(-c2cc(-c3ncnc4[nH]ccc34)sc2-c2ncc[nH]2)c(Cl)c1
< 100 nM | Cc1nn2ccccc2c1-c1nc(-c2cc(F)ccc2F)c(-c2nc[nH]n2)s1
100 to 1000 nM | CC(=O)Nc1cc(-c2nc(-c3ccccc3)c(-c3nnc[nH]3)s2)cc(C)n1
100 to 1000 nM | c1ccc(-c2nc(-c3cnn4ccccc34)sc2-c2nnc[nH]2)cc1
< 100 nM | N#Cc1c(-c2ccnc(N)n2)sc(-c2nnc[nH]2)c1-c1ccc(Cl)cc1Cl
< 100 nM | CC(=O)Nc1cc(-c2nc(-c3ccc(Cl)cc3Cl)c(-c3nc(C)c[nH]3)s2)ccn1
< 100 nM | Cc1nn2ccccc2c1-c1nc(-c2ccc(CO)cc2)c(-c2nc[nH]n2)s1
< 100 nM | Cc1nn2ccccc2c1-c1nc(-c2cnc3ccccc3c2)c(-c2nc[nH]n2)s1
100 to 1000 nM | Cc1nn2ccccc2c1-c1nc(-c2cccc(OCc3ccccc3)c2)c(-c2nc[nH]n2)s1
